Results reported in BindingDB's records for doi:10.1021/acs.jmedchem.2c01800 (China Pharmaceutical University, 2023).

Legend:
[1] = target: T1, Signal transducer and activator of transcription 3 (Homo sapiens, UniProt P40763); experiment: Inhibition of IL-23 induced STAT3 phosphorylation in human KIT225 cells by AlphaLISA assay
[2] = target: T1, Signal transducer and activator of transcription 3; experiment: Inhibition of IL-6 induced STAT3 phosphorylation in human TF-1 cells by AlphaLISA assay
[3] = target: T1, Signal transducer and activator of transcription 3; experiment: Inhibition of IL-23 induced STAT3 phosphorylation in human Jurkat cells incubated for 30 mins by microplate reader analysis

T1 sequence (P40763 whole entry): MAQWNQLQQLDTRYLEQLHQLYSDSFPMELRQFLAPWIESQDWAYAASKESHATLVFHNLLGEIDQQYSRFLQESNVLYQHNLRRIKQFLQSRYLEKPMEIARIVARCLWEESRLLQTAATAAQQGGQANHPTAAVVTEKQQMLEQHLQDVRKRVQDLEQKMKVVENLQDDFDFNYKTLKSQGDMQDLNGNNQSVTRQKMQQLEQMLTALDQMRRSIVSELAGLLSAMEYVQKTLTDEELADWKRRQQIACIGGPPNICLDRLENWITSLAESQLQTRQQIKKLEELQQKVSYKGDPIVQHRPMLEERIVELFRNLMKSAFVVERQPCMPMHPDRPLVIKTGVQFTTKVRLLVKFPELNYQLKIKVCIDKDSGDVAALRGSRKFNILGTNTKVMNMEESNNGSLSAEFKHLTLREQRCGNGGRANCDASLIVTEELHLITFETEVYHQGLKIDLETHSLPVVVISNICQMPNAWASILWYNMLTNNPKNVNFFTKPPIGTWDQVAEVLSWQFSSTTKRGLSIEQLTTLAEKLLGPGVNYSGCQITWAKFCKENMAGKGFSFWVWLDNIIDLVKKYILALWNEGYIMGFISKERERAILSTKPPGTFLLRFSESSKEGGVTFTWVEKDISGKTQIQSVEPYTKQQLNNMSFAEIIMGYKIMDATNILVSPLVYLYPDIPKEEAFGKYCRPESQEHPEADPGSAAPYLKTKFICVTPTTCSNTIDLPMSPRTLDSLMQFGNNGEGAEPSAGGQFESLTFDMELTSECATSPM

SMILES	IC50 [1] [nM]	IC50 [2] [nM]	IC50 [3] [nM]
[2H]C([2H])([2H])NC(=O)c1nnc(Nc2ccc(N3CC(O)C3)cn2)cc1Nc1cccc(-c2ncn(C)n2)c1OC	5.9		
[2H]C([2H])([2H])NC(=O)c1nnc(NC(=O)C2CC2)cc1Nc1cccc(-c2ncc(-c3cccnc3C(F)(F)F)cn2)c1OC			2.4

Other lines, results leading:

IC50 [1] [nM]	IC50 [2] [nM]	IC50 [3] [nM]	SMILES
29			CCOc1cccc(Nc2cc(NC)n3ncc(C(=O)N[C@@H]4CCN(C)C4=O)c3n2)n1
28	5900		CNC(=O)c1nnc(NC(=O)N2CCC2)cc1Nc1cccc(-c2ncn(C)n2)c1OC [US11053219, Example 28]
9			CNc1cc(Nc2ccccc2OC)nc2c(C(=O)N[C@@H]3CCN(C)C3=O)cnn12
65			CNc1cc(Nc2cccn(-c3ccccn3)c2=O)nc2c(C(=O)N[C@@H]3CCN(C)C3=O)cnn12
